Laboratory results from US10738007B2, “Amide compounds as kinase inhibitors, compositions and methods of treatment” (TRANSLATIONAL DRUG DEVELOPMENT, LLC, priority 2016, dated 2020).
Where two headings read alike, the source gives them in different places.

How the values were obtained:
K562 cell line = test: Cell viability assay ([…]-GLO), K562; type: cell-based; conditions: Homo sapiens; K562 (does not express ITD-FLT3), 72 hours treatment
Procedure: Cell viability in the presence of varying concentrations of the above listed compounds at different time points was used to assess cytotoxicity and the effect of the compounds on cell proliferation.
Cell viability was measured by the […]-GlO® cell viability assay from Promega (Madison, Wis.). The […]-GlO Luminescent Cell Viability Assay is a homogeneous method to determine the number of viable cells in culture based on quantitation of the ATP present, which signals the presence of metabolically active cells. Following treatment, […]-GlO® is added to treatment wells and incubated at 37° C. Luminescence values were measured at using a Molecular Devices Spectramax microplate reader.
Cells were grown to 70% confluency, trypsinized, counted, and seeded in 96 well flat-bottom plates at a final concentration of 2.5×10^3-5×10^3 cells/well (Day 0). Cells were allowed to incubate in growth media for 24 hours. Treatment with the test agents or standard agents began on Day 1 and continued for 72 hours. At the 72-hour time point, treatment containing media was removed. Viable cell numbers were quantified by the […]-GLO® cell viability assay as described above. Results from these studies were used to calculate an IC50 value (concentration of drug that inhibits cell growth by 50 percent of control) for each compound.
For single agent and combination studies, data from each experiment was collected and expressed as % Cell Growth using the following calculation: % Cell Growth=(ftest/fvehicle)×100
Where ftest is the luminescence of the tested sample, and fvehicle is the luminescence of the vehicle in which the drug is dissolved. Dose response graphs and IC50 values were generated using Prism 6 software (GraphPad) using the following equation: Y=(Top−Bottom)/(1+10^((logIC50-X)−HillSlope))
Where X is the logarithm of the concentration and Y is the response. Y starts at the Bottom and goes to the Top with a sigmoid shape.
The experiments also evaluated the selectivity of the compounds for inhibiting growth of cancer cells carrying a mutation in the Flt3 gene. The MV411 cell line expresses the mutant allele of Flt3 with internal tandem duplications (ITD) of the gene. See Quentmeier et al., “FLT3 Mutations in Acute Myeloid Leukemia Cell Lines,” Leukemia 17(1), 2003, 120-124. […] See Grafone et al., “Monitoring of FLT3 Phosphorylation Status and Its Response to Drugs By Flow Cytometry in AML Blast Cells,” Hematol Oncol. 26(3), 2008, 159-166.

ROCK1 = ROCK1 (Homo sapiens (Human), UniProt Q13464); test: ROCK1 kinase inhibition assay (peptide phosphorylation, LABCHIP 3000); type: biochemical; conditions: 5 μM ATP, 3 nM ROCK1, 3 hours at 25° C.
Procedure: The peptide is phosphorylated by the protein kinase ROCK1 or ROCK2. The ROCK1 or ROCK2 enzyme, substrate, and cofactors (ATP and Mg^2+) are combined in a well of a microtiter plate and incubated for 3 hours at 25° C. in the presence or absence of an inhibitor compound. At the end of the incubation, the reaction is quenched by the addition of an EDTA-containing buffer. The substrate and product are separated and quantified electrophoretically using the microfluidic-based LABCHIP® 3000 Drug Discovery System from Caliper Life Sciences (Hopkinton, Mass.).
The components of the assay mixture are:
10 μM Sodium Orthovanadate
10 LM Beta-Glycerophosphate
5 μM ATP (for ROCK1) or 7 μM ATP (for ROCK2)
3 nM ROCK1 or 2.5 nM ROCK2 enzyme
Substrate and product peptides present in each sample are separated electrophoretically using the LABCHIP® 3000 capillary electrophoresis instrument. […] Change in the relative fluorescence intensity of the substrate and product peaks is the parameter measured reflecting enzyme activity. Capillary electrophoregramms (RDA acquisition files) are analyzed using HTS Well Analyzer software (Caliper Life Sciences, Hopkinton, Mass.). The kinase activity in each sample is determined as the product to sum ratio (PSR): P/(S+P), where P is the peak height of the product peptide and S is the peak height of the substrate peptide. For each compound, enzyme activity is measured at various concentrations (12 concentrations of compound spaced by 3× dilution intervals). Negative control samples (0%-inhibition in the absence of inhibitor) and positive control samples (100%-inhibition in the presence of 20 mM EDTA) are assembled in replicates of four and are used to calculate %-inhibition values for each compound at each concentration. Percent inhibition (Pinh) is determined using the following equation: Pinh=(PSRO %−PSRinh)/(PSRO %−PSR100%)*100
where PSRinh is the product sum ratio in the presence of inhibitor, PSRO % is the average product sum ratio in the absence of inhibitor, and PSR100% is the average product sum ratio in 100%-inhibition control samples. The IC50 values of inhibitors are determined by fitting the inhibition curves (Pinh versus inhibitor concentration) by the 4-parameter sigmoidal dose-response model using XLfit 4 software (IBDS).

MV411 cell line = test: Cell viability assay ([…]-GLO), MV411; type: cell-based; conditions: for IC50: Homo sapiens, MV4-11, MV411 (ITD-FLT3+), 72 hours treatment; for FLT3-ITD+ Selectivity (K562/MV411): ratio K562/MV411
Procedure: Cell viability was measured by the […] -GlO® cell viability assay from Promega (Madison, Wis.). The […] -GlO Luminescent Cell Viability Assay is a homogeneous method to determine the number of viable cells in culture based on quantitation of the ATP present, which signals the presence of metabolically active cells. Following treatment, […] -GlO® is added to treatment wells and incubated at 37° C. Luminescence values were measured at using a Molecular Devices Spectramax microplate reader.

ROCK2 = ROCK2 (Homo sapiens (Human), UniProt O75116); test: ROCK2 kinase inhibition assay (peptide phosphorylation, LABCHIP 3000); type: biochemical; conditions: 7 μM ATP, 2.5 nM ROCK2, 3 hours at 25° C.
[1] = Pharmacokinetic activity in mice; type: in vivo; conditions: for AUC(0-t): read-out: AUC0-8; for Vd: read-out: Vss
Procedure: Compounds were individually and accurately weighed out to produce a stock solution in Dimethyl-sulfoxide (DMSO) at a concentration of 2 mg/mL and stored at −20° C. From the stock solution, a working stock was prepared by diluting it in Methanol-Water 50:50 (v/v) at 20 μg/mL for calibration curve preparation and stored at 4° C. Standards used for quantitation and quality control samples (QCs) were prepared on the same day of sample processing using blank plasma obtained from non-treated mice. For each analyte, standards were prepared through serial dilutions of the working stock at concentrations of 0.1, 0.5, 1.0, 10, 50, 100, 500, and 1000 ng/mL; QCs were prepared at intermediate concentrations of 0.75, 7.5, 75, and 750 ng/mL. Plasma samples were stored at −80° C. until ready for analysis and then placed on ice for thawing. An aliquot of […] samples, standards, or QCs, were transferred into a 96-well extraction plate according to a pre-defined layout. An appropriate volume of Methanol-Formic Acid 99.9-0.1 containing internal standard (Verapamil at 25 ng/mL) was added to each well and the samples were extracted under vacuum. Eluent was then transferred into a LCMS plate for analysis using a suitable column for separation and MRM detection. Concentration of analytes was calculated based on the calibration curve and analyzed for pharmacokinetic parameters by using Non-compartmental analysis (NCA). Parameters such as Cmax, Tmax, half-life, AUC(0-last), AUC(0-∞), volume of distribution (Vss), and clearance (Cl/F) were reported.

Sequence of ROCK1 (Q13464 whole entry, species assumed): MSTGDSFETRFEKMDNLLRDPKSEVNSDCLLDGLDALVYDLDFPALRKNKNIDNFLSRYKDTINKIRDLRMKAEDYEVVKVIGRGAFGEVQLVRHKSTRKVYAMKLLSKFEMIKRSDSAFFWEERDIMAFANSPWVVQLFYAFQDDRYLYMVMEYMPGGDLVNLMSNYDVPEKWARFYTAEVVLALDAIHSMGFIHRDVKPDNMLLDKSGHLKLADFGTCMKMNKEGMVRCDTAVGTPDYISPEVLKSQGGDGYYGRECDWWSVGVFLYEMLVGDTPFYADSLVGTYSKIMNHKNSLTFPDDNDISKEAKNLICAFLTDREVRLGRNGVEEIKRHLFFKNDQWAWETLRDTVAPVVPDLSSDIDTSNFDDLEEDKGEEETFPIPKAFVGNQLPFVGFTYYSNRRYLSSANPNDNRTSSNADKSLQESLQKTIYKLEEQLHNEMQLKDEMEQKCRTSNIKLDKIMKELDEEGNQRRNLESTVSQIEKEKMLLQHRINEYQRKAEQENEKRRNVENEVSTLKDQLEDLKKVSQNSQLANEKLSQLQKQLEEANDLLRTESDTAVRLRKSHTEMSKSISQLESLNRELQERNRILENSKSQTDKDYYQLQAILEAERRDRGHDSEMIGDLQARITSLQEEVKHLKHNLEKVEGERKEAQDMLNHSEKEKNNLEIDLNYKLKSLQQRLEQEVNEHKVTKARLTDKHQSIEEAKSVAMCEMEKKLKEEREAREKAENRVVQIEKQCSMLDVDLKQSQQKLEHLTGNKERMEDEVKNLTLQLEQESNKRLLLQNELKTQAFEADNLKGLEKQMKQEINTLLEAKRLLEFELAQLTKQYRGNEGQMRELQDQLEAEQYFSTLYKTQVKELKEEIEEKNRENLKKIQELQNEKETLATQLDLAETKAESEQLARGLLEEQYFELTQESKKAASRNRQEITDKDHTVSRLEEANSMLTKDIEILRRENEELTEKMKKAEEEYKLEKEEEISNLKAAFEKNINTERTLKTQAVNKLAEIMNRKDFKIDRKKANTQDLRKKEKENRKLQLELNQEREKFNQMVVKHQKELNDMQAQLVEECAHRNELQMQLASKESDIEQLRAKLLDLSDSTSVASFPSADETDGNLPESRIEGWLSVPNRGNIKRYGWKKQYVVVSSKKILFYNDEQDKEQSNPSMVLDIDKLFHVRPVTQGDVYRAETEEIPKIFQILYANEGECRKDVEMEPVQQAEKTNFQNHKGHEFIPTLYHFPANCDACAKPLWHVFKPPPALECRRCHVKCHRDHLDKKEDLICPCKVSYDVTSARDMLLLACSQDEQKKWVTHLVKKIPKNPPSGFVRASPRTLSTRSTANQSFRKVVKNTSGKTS
Sequence of ROCK2 (O75116 whole entry, species assumed): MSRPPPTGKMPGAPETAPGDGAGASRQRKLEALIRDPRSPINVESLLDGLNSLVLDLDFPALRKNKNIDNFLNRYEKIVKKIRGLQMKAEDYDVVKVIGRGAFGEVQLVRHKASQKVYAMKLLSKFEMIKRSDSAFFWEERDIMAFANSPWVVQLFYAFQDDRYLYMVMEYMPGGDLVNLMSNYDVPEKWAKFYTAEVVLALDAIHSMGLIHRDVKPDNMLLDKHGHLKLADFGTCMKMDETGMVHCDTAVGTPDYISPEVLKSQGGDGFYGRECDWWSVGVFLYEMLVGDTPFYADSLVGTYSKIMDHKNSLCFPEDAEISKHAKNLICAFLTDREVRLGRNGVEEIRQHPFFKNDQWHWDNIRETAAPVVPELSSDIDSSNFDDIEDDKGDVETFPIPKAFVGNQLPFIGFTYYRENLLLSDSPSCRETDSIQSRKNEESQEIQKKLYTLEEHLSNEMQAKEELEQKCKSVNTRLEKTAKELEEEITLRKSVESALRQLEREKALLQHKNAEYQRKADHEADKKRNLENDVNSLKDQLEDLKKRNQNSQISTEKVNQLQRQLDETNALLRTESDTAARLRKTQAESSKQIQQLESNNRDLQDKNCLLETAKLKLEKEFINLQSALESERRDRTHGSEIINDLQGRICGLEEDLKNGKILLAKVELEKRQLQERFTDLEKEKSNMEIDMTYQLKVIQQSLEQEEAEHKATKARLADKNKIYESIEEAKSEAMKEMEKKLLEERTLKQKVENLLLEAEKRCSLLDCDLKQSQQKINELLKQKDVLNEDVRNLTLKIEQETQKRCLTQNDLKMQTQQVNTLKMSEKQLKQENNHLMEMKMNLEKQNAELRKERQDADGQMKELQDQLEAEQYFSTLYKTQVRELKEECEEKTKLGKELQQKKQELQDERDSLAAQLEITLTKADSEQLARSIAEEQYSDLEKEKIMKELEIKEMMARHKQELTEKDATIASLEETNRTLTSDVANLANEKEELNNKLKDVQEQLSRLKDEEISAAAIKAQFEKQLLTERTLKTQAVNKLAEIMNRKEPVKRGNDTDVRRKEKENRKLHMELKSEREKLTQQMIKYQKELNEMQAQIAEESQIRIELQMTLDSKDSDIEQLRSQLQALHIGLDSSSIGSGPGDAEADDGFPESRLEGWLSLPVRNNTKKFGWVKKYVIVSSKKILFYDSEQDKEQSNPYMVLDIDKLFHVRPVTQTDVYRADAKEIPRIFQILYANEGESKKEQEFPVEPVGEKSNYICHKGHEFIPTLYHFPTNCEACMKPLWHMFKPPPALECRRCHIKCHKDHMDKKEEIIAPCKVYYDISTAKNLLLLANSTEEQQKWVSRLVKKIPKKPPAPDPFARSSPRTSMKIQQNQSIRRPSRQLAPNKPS

Row | IC50 (K562 cell line) | IC50 (ROCK1) | IC50 (MV411 cell line) | IC50 (ROCK2) | Compound | FLT3-ITD+ Selectivity (K562/MV411) (MV411 cell line) | other results
1 | > 100000 nM | 21.7 nM | 1500 nM | 6.7 nM | CC(C)NC(=O)c1cccc(CNC(=O)c2ccc(-c3ccncc3)cc2)c1 [Compound 5] | >68 | 
2 | 58000 nM | 2.4 nM | 480 nM | 1.2 nM | C[C@@H](NC(=O)c1ccc(-c2ccncc2)cc1)c1cccc(C(=O)NC2CC2)c1 [Compound 76] | 120 | 
3 | > 100000 nM | 1.9 nM | 30 nM | 0.68 nM | O=C(NC1CCN(CC(F)(F)F)CC1)c1cccc([C@@H](CO)NC(=O)c2ccc(-c3ccncc3)cc2)c1 [Compound 79] | >3333 | 
4 |  | 56.1 nM |  | 18.9 nM | CN(C)CCNC(=O)COc1cccc(CNC(=O)c2ccc(-c3ccncc3)cc2)c1 [Compound 4] |  | 
5 |  | 1.6 nM |  | 1.2 nM | CCN(CC)C1CCC(NC(=O)c2cccc([C@@H](CO)NC(=O)c3ccc(-c4ccncc4)cc3)c2)CC1 (stereo partly drawn) [Compound 35] |  | 
6 |  | 2.8 nM |  | 2.8 nM | CN1CCc2ccc(NC(=O)c3cccc(C(CO)NC(=O)c4ccc(-c5ccncc5)cc4)c3)cc2C1 (stereo not drawn) [Compound 2] |  | 
7 | 20400 nM |  | 60 nM | 1.5 nM | CN1CCc2ccc(NC(=O)c3cccc([C@@H](CO)NC(=O)c4ccc(-c5ccncc5)cc4)c3)cc2C1 [Compound 7] | 333 | AUC % Extrap ([1]; IV - 1 mg/kg): 3.29%; Cl/F obs ([1]; IV - 1 mg/kg): 68.7 mL/min/kg; R-sq ([1]; IV - 1 mg/kg): 0.88; R-sq ([1]; PO - 5 mg/kg): 0.47; AUC(0-inf) ([1]; mouse, plasma, IV - 1 mg/kg): 243 ng·h/mL; C0 ([1]; mouse, plasma, IV - 1 mg/kg): 411 ng/mL; Cmax ([1]; mouse, plasma, IV - 1 mg/kg): 190 ng/mL; Tmax ([1]; mouse, plasma, IV - 1 mg/kg): 0.25 h; half-life ([1]; mouse, plasma, IV - 1 mg/kg): 6.43 h; AUC(0-t) ([1]; mouse, plasma, IV - 1 mg/kg): 235 ng·h/mL; Vd ([1]; mouse, plasma, IV - 1 mg/kg): 16.3 L/kg; Cmax ([1]; mouse, plasma, PO - 5 mg/kg): 5.3 ng/mL; Tmax ([1]; mouse, plasma, PO - 5 mg/kg): 1 h; AUC(0-t) ([1]; mouse, plasma, PO - 5 mg/kg): 81.6 ng·h/mL
8 |  |  |  |  | C[C@@H](NC(=O)c1ccc(-c2ccncc2)cc1)c1cccc(C(=O)NC2CCCC2)c1 [Compound 36] |  | AUC % Extrap ([1]; IV - 1 mg/kg): 0.35%; Cl/F obs ([1]; IV - 1 mg/kg): 2.67 mL/min/kg; R-sq ([1]; IV - 1 mg/kg): 0.72; AUC % Extrap ([1]; PO - 5 mg/kg): 0.33%; R-sq ([1]; PO - 5 mg/kg): 1.00; AUC(0-inf) ([1]; mouse, plasma, IV - 1 mg/kg): 6070 ng·h/mL; C0 ([1]; mouse, plasma, IV - 1 mg/kg): 5910 ng/mL; Cmax ([1]; mouse, plasma, IV - 1 mg/kg): 4340 ng/mL; Tmax ([1]; mouse, plasma, IV - 1 mg/kg): 0.25 h; half-life ([1]; mouse, plasma, IV - 1 mg/kg): 2.59 h; AUC(0-t) ([1]; mouse, plasma, IV - 1 mg/kg): 5850 ng·h/mL; Vd ([1]; mouse, plasma, IV - 1 mg/kg): 0.27 L/kg; AUC(0-inf) ([1]; mouse, plasma, PO - 5 mg/kg): 10500 ng·h/mL; CL/F ([1]; mouse, plasma, PO - 5 mg/kg): 8 mL/min/kg; Cmax ([1]; mouse, plasma, PO - 5 mg/kg): 2500 ng/mL; Tmax ([1]; mouse, plasma, PO - 5 mg/kg): 1 h; half-life ([1]; mouse, plasma, PO - 5 mg/kg): 2.96 h; bioavailability ([1]; mouse, plasma, PO - 5 mg/kg vs IV - 1 mg/kg): 34.6%; AUC(0-t) ([1]; mouse, plasma, PO - 5 mg/kg): 8890 ng·h/mL; Vd/F ([1]; mouse, plasma, PO - 5 mg/kg, read-out: Vz/F obs): 2.04 L/kg
9 |  | 1.7 nM |  |  | COc1ccc(NC(=O)c2cccc([C@@H](CO)NC(=O)c3ccc(-c4ccncc4)cc3)c2)cn1 [Compound 80] |  | 
10 |  | 2.9 nM |  | 1.5 nM | CN(C)c1ccc(CNC(=O)c2cccc([C@@H](CO)NC(=O)c3ccc(-c4ccncc4)cc3)c2)cc1 [Compound 30] |  | 
11 |  | 2.1 nM |  | 1 nM | CN(C)c1cccc(CNC(=O)c2cccc([C@@H](CO)NC(=O)c3ccc(-c4ccncc4)cc3)c2)c1 [Compound 31] |  | 
12 | > 100000 nM |  | 8500 nM | 7.5 nM | Cc1cc(-c2ccncc2)ccc1C(=O)N[C@H](CO)c1cccc(C(=O)NC2CCCC2)c1 [Compound 88] | >12 | 
13 | 52000 nM |  | 150 nM | 0.7 nM | O=C(NCC1(O)CCCCC1)c1cccc([C@@H](CO)NC(=O)c2ccc(-c3ccncc3)cc2)c1 [Compound 69] | 350 | 
14 | 11000 nM |  | 90 nM | 1.88 nM | O=C(NC1CCCC1)c1cccc([C@@H](CO)NC(=O)c2ccc(-c3cn[nH]c3)cc2)c1 [Compound 46] | 122 | 
15 | 36000 nM |  | 130 nM | 0.6 nM | O=C(NCC1CCC1)c1cccc([C@@H](CO)NC(=O)c2ccc(-c3ccncc3)cc2)c1 [Compound 66] | 279 | 
16 | 30000 nM |  | 1500 nM | 3.6 nM | CC(NC(=O)c1ccc(-c2ccncc2)cc1)c1cccc(OCC(=O)Nc2ccc3c(c2)CN(C)CC3)c1 (stereo not drawn) [Compound 16] | 20 | 
